Type in all cases: biochemical
One experiment deals with hEXO1, Isoform1 (Homo sapiens (Human), UniProt Q9UQ84). Description: Enzymatic IC50 assay, FAM-labeled DNA oligomer substrate, fluorescence intensity (EXO1). Particulars: hEXO1 6 nM, substrate 30 nM, reaction time 60 minutes, 23° C. The essentials: (§1)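 FEN1, EXO1 or XPG was preincubated 15 min with compound, then the FAM-labelled DNA oligomer substrate was added in Tris-HCl pH 8.0 with 10 mM MgCl2 at 23° C. FEN1 was 70 pM with 100 nM substrate for 20 min, EXO1 6 nM with 30 nM for 60 min, and XPG 100 nM with 100 nM for 120 min. Reactions were EDTA-stopped and read by fluorescence intensity.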

Another experiment concerns the target hFEN1 (Homo sapiens (Human), UniProt P39748). Description: Enzymatic IC50 assay, FAM-labeled DNA oligomer substrate, fluorescence intensity (FEN1). Particulars: hFEN1 70 pM, substrate 100 nM, reaction time 20 minutes, 23° C. The essentials:
as §1

The target of another experiment is hXPG (Homo sapiens (Human), UniProt P28715). The experiment in a line: Enzymatic IC50 assay, FAM-labeled DNA oligomer substrate, fluorescence intensity (XPG). As to conditions: hXPG 100 nM, substrate 100 nM, reaction time 120 minutes, 23° C. On the procedure: FEN1, EXO1 or XPG enzyme was incubated with compound or vehicle (DMSO) and the FAM-labeled DNA oligomer substrate in a microtiter plate. The stop buffer contains EDTA to stop the enzymatic reaction. The plate is read for fluorescence intensity. The high control (DMSO) with high fluorescence intensity represents no inhibition of enzymatic reaction while the low control (10 μM) with low fluorescence intensity represents full inhibition of enzymatic reaction.
• FEN1 • hFEN1: 70 pM • Substrate: 100 nM • Reaction time: 20 minutes • EXO1 • hEXO1: 6 nM, Isoforml • Substrate: 30 nM • Reaction time: 60 minutes • XPG • hXPG: 100 nM • Substrate: 100 nM • Reaction time: 120 minutes
Annealing Buffer: 50 mM Tris-HCl, 50 mM NaCl, 1 mM DTT Assay buffer: 50 mM Tris-HCl pH 8.0, 10 mM MgCl2, 0.01% BSA, 1 mM DTT Stop buffer: 50 mM EDTA in assay buffer Temperature: 23° C. Total volume: 40 μl Controls: • 0% inhibition control: DMSO • 100% inhibition control: 10 μM (final) 5-chloro-3-hydroxy-1,3-dihydroquinazoline-2,4-dione Enzyme Reaction and Detection: • 1. Prepare 25 μM intermediate stock of the substrate by diluting SEQ ID NO:1, SEQ ID NO:2, and SEQ ID NO:3 in annealing buffer, in a PCR tube. • 2. Place the PCR tube on a heat block, heat at 95° C. for 3 minutes, then drop in 0.2° C. increments over 2 minutes, stopping at 25° C. • 3. Remove the tube and let the tube cool at room temperature. • 4. Transfer 10 μL of 3× final concentration test compounds or DMSO to the appropriate wells of a microtiter plate. • 5. Transfer 10 μL of 3× final concentration enzyme in assay buffer or assay buffer alone to the appropriate wells. • 6. Incubate the plate at room temperature for 15 minutes. • 7. Transfer 10 μL of 3× substrate in assay buffer to all the test wells. • 8. Incubate the plate at room temperature for prescribed reaction time. • 9. Centrifuge the plate at 1000 rpm for 1 minute. • 10. Transfer 10 μL of stop buffer to all the test wells. • 11. Centrifuge the plate at 1000 rpm for 1 minute. • 12. Read the plate on a plate reader.

Sequence of hEXO1, Isoform1 (Q9UQ84 whole entry, canonical isoform): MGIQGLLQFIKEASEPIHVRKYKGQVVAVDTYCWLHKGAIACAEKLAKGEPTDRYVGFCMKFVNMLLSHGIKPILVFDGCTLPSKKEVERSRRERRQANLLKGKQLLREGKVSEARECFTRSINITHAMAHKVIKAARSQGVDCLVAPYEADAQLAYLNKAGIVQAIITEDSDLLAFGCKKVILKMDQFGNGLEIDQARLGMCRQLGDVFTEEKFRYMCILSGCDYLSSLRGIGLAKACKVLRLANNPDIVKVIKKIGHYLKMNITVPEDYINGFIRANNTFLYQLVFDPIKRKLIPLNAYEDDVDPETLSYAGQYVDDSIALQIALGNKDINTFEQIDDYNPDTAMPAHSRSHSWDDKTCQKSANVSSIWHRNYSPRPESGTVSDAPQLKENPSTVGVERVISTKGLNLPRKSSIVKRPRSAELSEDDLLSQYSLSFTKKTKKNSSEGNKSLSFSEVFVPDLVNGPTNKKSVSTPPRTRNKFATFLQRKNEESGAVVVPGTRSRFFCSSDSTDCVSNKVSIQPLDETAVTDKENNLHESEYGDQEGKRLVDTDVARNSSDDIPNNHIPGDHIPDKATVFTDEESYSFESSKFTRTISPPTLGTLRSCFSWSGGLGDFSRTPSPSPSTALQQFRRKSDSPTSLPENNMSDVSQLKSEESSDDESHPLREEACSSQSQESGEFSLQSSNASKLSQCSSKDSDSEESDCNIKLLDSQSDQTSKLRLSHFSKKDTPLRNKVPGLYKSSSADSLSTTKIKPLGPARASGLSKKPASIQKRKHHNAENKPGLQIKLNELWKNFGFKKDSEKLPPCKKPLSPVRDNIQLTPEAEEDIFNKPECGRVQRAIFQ
Sequence of hFEN1 (P39748 whole entry): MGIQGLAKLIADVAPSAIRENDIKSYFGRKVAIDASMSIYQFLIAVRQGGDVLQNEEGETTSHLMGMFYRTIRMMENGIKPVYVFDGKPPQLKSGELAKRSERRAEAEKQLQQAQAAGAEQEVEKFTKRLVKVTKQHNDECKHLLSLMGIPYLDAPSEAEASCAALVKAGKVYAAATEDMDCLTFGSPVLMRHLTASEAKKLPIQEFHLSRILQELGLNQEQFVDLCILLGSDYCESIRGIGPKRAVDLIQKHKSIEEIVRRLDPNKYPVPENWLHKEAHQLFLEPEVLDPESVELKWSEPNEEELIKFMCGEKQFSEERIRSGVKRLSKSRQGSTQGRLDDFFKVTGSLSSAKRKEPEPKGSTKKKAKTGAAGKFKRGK
Sequence of hXPG (P28715 whole entry, canonical isoform): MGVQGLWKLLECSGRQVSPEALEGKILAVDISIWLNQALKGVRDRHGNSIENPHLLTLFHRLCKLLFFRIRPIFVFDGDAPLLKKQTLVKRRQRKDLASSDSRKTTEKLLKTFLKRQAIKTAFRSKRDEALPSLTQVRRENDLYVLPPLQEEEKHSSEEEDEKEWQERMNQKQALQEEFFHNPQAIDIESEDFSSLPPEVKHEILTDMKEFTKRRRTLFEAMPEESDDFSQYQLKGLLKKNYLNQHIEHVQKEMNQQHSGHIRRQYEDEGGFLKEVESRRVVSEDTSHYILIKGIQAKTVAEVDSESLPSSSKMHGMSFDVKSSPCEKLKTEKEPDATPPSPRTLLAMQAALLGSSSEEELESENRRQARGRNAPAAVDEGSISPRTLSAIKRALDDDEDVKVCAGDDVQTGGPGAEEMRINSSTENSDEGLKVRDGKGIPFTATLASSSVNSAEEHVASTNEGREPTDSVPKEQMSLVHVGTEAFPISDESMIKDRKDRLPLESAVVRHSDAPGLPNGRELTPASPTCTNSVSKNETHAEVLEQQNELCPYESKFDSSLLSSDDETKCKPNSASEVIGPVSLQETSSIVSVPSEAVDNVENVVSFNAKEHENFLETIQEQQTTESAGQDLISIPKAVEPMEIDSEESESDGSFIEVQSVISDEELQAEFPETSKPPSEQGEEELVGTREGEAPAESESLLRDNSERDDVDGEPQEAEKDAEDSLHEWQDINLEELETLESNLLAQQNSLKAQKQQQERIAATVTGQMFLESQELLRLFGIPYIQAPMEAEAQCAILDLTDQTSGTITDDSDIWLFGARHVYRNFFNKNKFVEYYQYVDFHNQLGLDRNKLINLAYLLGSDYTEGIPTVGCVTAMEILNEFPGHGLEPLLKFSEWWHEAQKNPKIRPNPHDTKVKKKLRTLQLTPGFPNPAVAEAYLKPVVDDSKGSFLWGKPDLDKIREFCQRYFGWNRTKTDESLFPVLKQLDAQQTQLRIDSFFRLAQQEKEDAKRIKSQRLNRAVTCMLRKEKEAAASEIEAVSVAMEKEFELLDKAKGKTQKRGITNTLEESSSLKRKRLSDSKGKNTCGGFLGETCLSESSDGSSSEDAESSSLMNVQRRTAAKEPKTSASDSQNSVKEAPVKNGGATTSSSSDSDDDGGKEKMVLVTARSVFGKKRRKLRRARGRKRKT

For orientation: IC50 means the concentration that gives 50% inhibition. A low value points to greater potency in that assay. For the compound `O=C(O)c1c(O)c(=O)n(Cc2cnn(Cc3ccncc3)c2)c2ccsc12` [Example 121, 6-hydroxy-5-oxo-4-{[1-(pyridin-4-ylmethyl)-1H-pyrazol-4-yl]methyl}-4,5-dihydrothieno[3,2-b]pyridine-7-carboxylic acid], the IC50 against hEXO1, Isoform1 is 2.25 to 10 µM; at hFEN1, < 0.2 µM; on hXPG it was 2.25 to 10 µM.

With `O=C(O)c1c(O)c(=O)n(Cc2cnn(Cc3ccccc3)c2)c2ccsc12` [Example 122, 4-[(1-benzyl-1H-pyrazol-4-yl)methyl]-6-hydroxy-5-oxo-4,5-dihydrothieno[3,2-b]pyridine-7-carboxylic acid], the IC50 was 2.25 to 10 µM against hEXO1, Isoform1; < 0.2 µM at hFEN1; 0.75 to 2.25 µM on hXPG.

Consider `O=C(O)c1c(O)c(=O)n(Cc2cnn(Cc3cn4ccncc4n3)c2)c2ccsc12` [Example 125, 6-hydroxy-4-{[1-(imidazo[1,2-a]pyrazin-2-ylmethyl)-1H-pyrazol-4-yl]methyl}-5-oxo-4,5-dihydrothieno[3,2-b]pyridine-7-carboxylic acid], for which the half-maximal inhibitory concentration (IC50) against hEXO1, Isoform1 was 0.75 to 2.25 µM; on hFEN1, < 0.2 µM; against hXPG, 2.25 to 10 µM.

As to `N#Cc1ccc(Cn2cc(Cn3c(=O)c(O)c(C(=O)O)c4sccc43)cn2)cc1` [Example 127, 4-{[1-(4-cyanobenzyl)-1H-pyrazol-4-yl]methyl}-6-hydroxy-5-oxo-4,5-dihydrothieno[3,2-b]pyridine-7-carboxylic acid], the IC50 against hEXO1, Isoform1 is 0.75 to 2.25 µM; at hFEN1 it was < 0.2 µM; against hXPG it was 2.25 to 10 µM.

Turning to `N#Cc1cccc(Cn2cc(Cn3c(=O)c(O)c(C(=O)O)c4sccc43)cn2)c1` [Example 128, 4-{[1-(3-cyanobenzyl)-1H-pyrazol-4-yl]methyl}-6-hydroxy-5-oxo-4,5-dihydrothieno[3,2-b]pyridine-7-carboxylic acid], the IC50 was 2.25 to 10 µM against hEXO1, Isoform1; < 0.2 µM at hFEN1; 2.25 to 10 µM on hXPG.

For the compound `CS(=O)(=O)c1ccc(Cn2cc(Cn3c(=O)c(O)c(C(=O)O)c4sccc43)cn2)cc1` [Example 130, 6-hydroxy-4-({1-[4-(methylsulfonyl)benzyl]-1H-pyrazol-4-yl}methyl)-5-oxo-4,5-dihydrothieno[3,2-b]pyridine-7-carboxylic acid], the IC50 against hEXO1, Isoform1 is 2.25 to 10 µM; against hFEN1, < 0.2 µM; at hXPG, 2.25 to 10 µM.

Take `CS(=O)(=O)c1cccc(Cn2cc(Cn3c(=O)c(O)c(C(=O)O)c4sccc43)cn2)c1` [Example 131, 6-hydroxy-4-({1-[3-(methylsulfonyl)benzyl]-1H-pyrazol-4-yl}methyl)-5-oxo-4,5-dihydrothieno[3,2-b]pyridine-7-carboxylic acid]: the IC50 at hEXO1, Isoform1 is 2.25 to 10 µM; on hFEN1 it was < 0.2 µM; at hXPG, 2.25 to 10 µM.

Consider `O=C(O)c1c(O)c(=O)n(Cc2cnn(Cc3ccnnc3)c2)c2ccsc12` [Example 132, 6-hydroxy-5-oxo-4-{[1-(pyridazin-4-ylmethyl)-1H-pyrazol-4-yl]methyl}-4,5-dihydrothieno[3,2-b]pyridine-7-carboxylic acid], for which the IC50 against hEXO1, Isoform1 was 2.25 to 10 µM; at hFEN1, < 0.2 µM; on hXPG it was 2.25 to 10 µM.

On to `Cc1cc(C#N)ccc1Cn1cc(Cn2c(=O)c(O)c(C(=O)O)c3sccc32)cn1` [Example 133, 4-{[1-(4-cyano-2-methylbenzyl)-1H-pyrazol-4-yl]methyl}-6-hydroxy-5-oxo-4,5-dihydrothieno[3,2-b]pyridine-7-carboxylic acid], for which the IC50 on hEXO1, Isoform1 was 2.25 to 10 µM; at hFEN1, < 0.2 µM; against hXPG, 0.75 to 2.25 µM.

Turning to `NC(=O)Cn1cc(Cn2c(=O)c(O)c(C(=O)O)c3sccc32)cn1` [Example 136, 4-{[1-(2-amino-2-oxoethyl)-1H-pyrazol-4-yl]methyl}-6-hydroxy-5-oxo-4,5-dihydrothieno[3,2-b]pyridine-7-carboxylic acid], the IC50 on hEXO1, Isoform1 was 2.25 to 10 µM; at hFEN1, < 0.2 µM; at hXPG, > 10 µM.

For the compound `O=C(O)c1c(O)c(=O)n(Cc2cnn(Cc3cn4ncccc4n3)c2)c2ccsc12` [Example 138], the IC50 was 2.25 to 10 µM against hEXO1, Isoform1; < 0.2 µM against hFEN1; 2.25 to 10 µM on hXPG.

For `O=C(O)c1c(O)c(=O)n(Cc2cnn(Cc3cccc4nonc34)c2)c2ccsc12` [Example 140, 4-{[1-(benzo[c][1,2,5]oxadiazol-4-ylmethyl)-1H-pyrazol-4-yl]methyl}-6-hydroxy-5-oxo-4,5-dihydrothieno[3,2-b]pyridine-7-carboxylic acid], the IC50 was 2.25 to 10 µM against hEXO1, Isoform1; < 0.2 µM at hFEN1; 2.25 to 10 µM at hXPG.

For `O=C(O)c1c(O)c(=O)n(Cc2cnn(Cc3ccc4nonc4c3)c2)c2ccsc12` [Example 141, 4-{[1-(benzo[c][1,2,5]oxadiazol-5-ylmethyl)-1H-pyrazol-4-yl]methyl}-6-hydroxy-5-oxo-4,5-dihydrothieno[3,2-b]pyridine-7-carboxylic acid], the IC50 against hEXO1, Isoform1 is 0.75 to 2.25 µM; against hFEN1 it was < 0.2 µM; on hXPG it was 2.25 to 10 µM.

Consider `Cn1cc(Cn2cc(Cn3c(=O)c(O)c(C(=O)O)c4sccc43)cn2)cn1` [Example 143, 6-hydroxy-4-({1-[(1-methyl-1H-pyrazol-4-yl)methyl]-1H-pyrazol-4-yl}methyl)-5-oxo-4,5-dihydrothieno[3,2-b]pyridine-7-carboxylic acid], for which the IC50 against hEXO1, Isoform1 was 2.25 to 10 µM; at hFEN1, < 0.2 µM; on hXPG it was 2.25 to 10 µM.

Turning to `O=C(O)c1c(O)c(=O)n(Cc2cnn(Cc3cnc4ccccn34)c2)c2ccsc12` [Example 144, 6-hydroxy-4-{[1-(imidazo[1,2-a]pyridin-3-ylmethyl)-1H-pyrazol-4-yl]methyl}-5-oxo-4,5-dihydrothieno[3,2-b]pyridine-7-carboxylic acid], the IC50 against hEXO1, Isoform1 is 2.25 to 10 µM; on hFEN1, < 0.2 µM; against hXPG, > 10 µM.

On to `N#Cc1ccc(Cn2cc(Cn3c(=O)c(O)c(C(=O)O)c4sccc43)cn2)c(C(F)(F)F)c1` [Example 146, 4-({1-[4-cyano-2-(trifluoromethyl)benzyl]-1H-pyrazol-4-yl}methyl)-6-hydroxy-5-oxo-4,5-dihydrothieno[3,2-b]pyridine-7-carboxylic acid], for which the IC50 against hEXO1, Isoform1 was 2.25 to 10 µM; on hFEN1, < 0.2 µM; on hXPG, 0.75 to 2.25 µM.

`O=C(O)c1c(O)c(=O)n(Cc2cn(-c3ccc4c(c3)OCO4)nn2)c2ccsc12` [Example 148, 4-{[1-(benzo[d][1,3]dioxol-5-yl)-1H-1,2,3-triazol-4-yl]methyl}-6-hydroxy-5-oxo-4,5-dihydrothieno[3,2-b]pyridine-7-carboxylic acid]: the IC50 at hEXO1, Isoform1 is 0.25 to 0.75 µM; at hFEN1 it was < 0.2 µM; at hXPG, 0.25 to 0.75 µM.

Turning to `O=C(O)c1c(O)c(=O)n(Cc2cn(-c3ccc4nc[nH]c4c3)nn2)c2ccsc12` [Example 149, 4-{[1-(1H-benzo[d]imidazol-6-yl)-1H-1,2,3-triazol-4-yl]methyl}-6-hydroxy-5-oxo-4,5-dihydrothieno[3,2-b]pyridine-7-carboxylic acid], the IC50 at hEXO1, Isoform1 was 2.25 to 10 µM; against hFEN1, < 0.2 µM; on hXPG, 0.75 to 2.25 µM.

With `O=C(O)c1c(O)c(=O)n(Cc2cnn(CC(=O)N3CC[C@H](O)C3)c2)c2ccsc12` [Example 154, (S)-6-hydroxy-4-({1-[2-(3-hydroxypyrrolidin-1-yl)-2-oxoethyl]-1H-pyrazol-4-yl}methyl)-5-oxo-4,5-dihydrothieno[3,2-b]pyridine-7-carboxylic acid], the IC50 on hEXO1, Isoform1 is > 10 µM; at hFEN1, 0.25 to 0.75 µM; on hXPG, > 10 µM.

Turning to `CN(C(=O)Cn1cc(Cn2c(=O)c(O)c(C(=O)O)c3sccc32)cn1)c1ccccc1` [Example 155], the IC50 against hEXO1, Isoform1 is 2.25 to 10 µM; against hFEN1, < 0.2 µM; at hXPG, 2.25 to 10 µM.

For the compound `O=C(O)c1c(O)c(=O)n(Cc2cnn(CC(=O)N3CCOCC3)c2)c2ccsc12` [Example 156], the IC50 against hEXO1, Isoform1 was 2.25 to 10 µM; against hFEN1, < 0.2 µM; on hXPG, 2.25 to 10 µM.

Source of the values: patent publication US11584755B2 (IDEAYA BIOSCIENCES, INC., priority 2017, dated 2023).
